Reference: ChEMBL document CHEMBL1201862, “PubChem BioAssay data set” (2004)
The source made the active and inactive calls. Cut-off read from the data, not from the text of the source, for most assays here: actives have a measured IC50 and inactives only a lower limit.

What was measured:
[1] = biological target: T1, Polyadenylate-binding protein 1 (Homo sapiens, UniProt P11940); experiment: blockers of PABP interaction with poly(A) – biochemical, fluorescence polarization, […] (AID 2014)
[2] = biological target: T2, Eukaryotic translation initiation factor 4H (Homo sapiens, UniProt Q15056); experiment: inhibitors of translation initiation factor eIF4H – SAR follow-up (AID 435011); type: functional
[3] = biological target: T3, Carboxy-terminal domain RNA polymerase II polypeptide A small phosphatase 1 (Homo sapiens, UniProt Q9GZU7); experiment: CTDSP1 inhibitors, concentration-response, biochemical, absorbance readout, ultra-high-throughput screen actives (AID 540297); type: functional
T3 sequence (Q9GZU7 whole entry): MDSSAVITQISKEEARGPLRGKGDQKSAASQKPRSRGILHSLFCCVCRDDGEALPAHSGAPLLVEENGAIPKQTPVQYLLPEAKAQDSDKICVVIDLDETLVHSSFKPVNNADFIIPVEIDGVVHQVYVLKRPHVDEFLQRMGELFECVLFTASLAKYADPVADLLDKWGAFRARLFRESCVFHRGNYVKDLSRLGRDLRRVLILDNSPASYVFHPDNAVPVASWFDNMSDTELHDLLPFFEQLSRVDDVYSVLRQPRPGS

[4] = biological target: T1, Polyadenylate-binding protein 1; experiment: PABP inhibition in translation initiation, SAR follow-up (AID 435018); type: functional
[5] = biological target: T2, Eukaryotic translation initiation factor 4H; experiment: eIF4H binding inhibition – biochemical, uHTS, fluorescence polarization, translation initiation inhibitor project, primary screen (AID 2012)
[6] = biological target: T4, Dual specificity protein phosphatase 6 (Rattus norvegicus, UniProt Q64346)
T4 sequence (Q64346 whole entry): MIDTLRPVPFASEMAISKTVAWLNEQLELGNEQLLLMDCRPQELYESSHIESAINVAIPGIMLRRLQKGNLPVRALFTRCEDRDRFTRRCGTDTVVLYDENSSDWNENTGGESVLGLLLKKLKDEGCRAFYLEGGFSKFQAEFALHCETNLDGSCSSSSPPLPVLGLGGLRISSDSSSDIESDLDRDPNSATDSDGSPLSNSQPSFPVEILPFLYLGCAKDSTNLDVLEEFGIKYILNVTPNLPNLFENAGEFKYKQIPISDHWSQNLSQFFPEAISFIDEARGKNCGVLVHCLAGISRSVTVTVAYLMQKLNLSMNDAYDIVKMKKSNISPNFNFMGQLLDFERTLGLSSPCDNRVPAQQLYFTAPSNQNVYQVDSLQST

[7] = biological target: T5, Dual specificity protein phosphatase 3 (Homo sapiens, UniProt P51452); experiment: MOA VHR1 Fluorescent secondary assay for identification of redox-state modulating compounds. [Related pubchem assays (depositor defined):AID1654, AID1661, AID1878, AID1957]
[8] = biological target: T5, Dual specificity protein phosphatase 3; experiment: SAR VHR1 Fluorescent Assay for In Vitro dose response studies. [Related pubchem assays (depositor defined):AID1654, AID1661, AID1878, AID1992, AID2004, AID2070, AID2085]; type: functional
[9] = biological target: T4, Dual specificity protein phosphatase 6; type: functional
[10] = biological target: T6, Tyrosine-protein phosphatase non-receptor type 7 (Homo sapiens, UniProt P35236); type: functional
T6 sequence (P35236 whole entry): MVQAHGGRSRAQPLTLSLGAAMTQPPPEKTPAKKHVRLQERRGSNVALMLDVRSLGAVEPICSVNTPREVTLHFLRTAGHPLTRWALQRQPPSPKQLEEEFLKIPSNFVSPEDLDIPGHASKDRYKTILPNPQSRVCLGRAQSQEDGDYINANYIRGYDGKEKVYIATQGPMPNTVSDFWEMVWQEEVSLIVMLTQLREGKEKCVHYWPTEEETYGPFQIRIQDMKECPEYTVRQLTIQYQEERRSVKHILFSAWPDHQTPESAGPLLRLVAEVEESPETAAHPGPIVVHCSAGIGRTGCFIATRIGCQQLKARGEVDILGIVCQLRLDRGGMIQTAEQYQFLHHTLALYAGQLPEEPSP

[11] = biological target: Glyceraldehyde-3-phosphate dehydrogenase (Homo sapiens, UniProt P04406)
[12] = biological target: T6, Tyrosine-protein phosphatase non-receptor type 7; experiment: redox-active compounds inhibiting HePTP phosphatase – biochemical, fluorescence, mechanism study (AID 2068); type: functional
[13] = biological target: T7, Kappa-type opioid receptor (Homo sapiens, UniProt P41145); experiment: SAR analysis of Antagonists of the Kappa Opioid Receptor (KOR) using an Image-Based Assay - Set 4. [Related pubchem assays (depositor defined):AID1777, AID1785]; type: functional
[14] = biological target: Delta-type opioid receptor (Homo sapiens, UniProt P41143); experiment: SAR Analysis of Antagonists of the DOR Receptor using an Image-Based Assay - Set 3. [Related pubchem assays (depositor defined):AID1777, AID1785]; type: functional;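 note: U2OS cells expressing DOR1 and beta-arrestin GFP stimulated with 100 nM SNC80; imaging of GFP-tagged beta-arrestin moving into spots after receptor activation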
[15] = biological target: T7, Kappa-type opioid receptor; experiment: SAR analysis of small molecule antagonists of the kappa opioid receptor via a luminescent beta-arrestin assay - Set 4. [Related pubchem assays (depositor defined):AID1777, AID1778, AID1785, AID1786, AID1966, AID2133, AID2136, AID2285]; type: functional
Mu-type opioid receptor = Mu-type opioid receptor (Homo sapiens, UniProt P35372); experiment: SAR Analysis of Antagonists of the MOR Receptor using an Image-Based Assay - Set 3. [Related pubchem assays (depositor defined):AID1777, AID1785, AID1786, AID1966, AID2133, AID2136, AID2284, AID2285, AID2420]; type: functional
Mu-type opioid receptor, sequence (P35372 whole entry): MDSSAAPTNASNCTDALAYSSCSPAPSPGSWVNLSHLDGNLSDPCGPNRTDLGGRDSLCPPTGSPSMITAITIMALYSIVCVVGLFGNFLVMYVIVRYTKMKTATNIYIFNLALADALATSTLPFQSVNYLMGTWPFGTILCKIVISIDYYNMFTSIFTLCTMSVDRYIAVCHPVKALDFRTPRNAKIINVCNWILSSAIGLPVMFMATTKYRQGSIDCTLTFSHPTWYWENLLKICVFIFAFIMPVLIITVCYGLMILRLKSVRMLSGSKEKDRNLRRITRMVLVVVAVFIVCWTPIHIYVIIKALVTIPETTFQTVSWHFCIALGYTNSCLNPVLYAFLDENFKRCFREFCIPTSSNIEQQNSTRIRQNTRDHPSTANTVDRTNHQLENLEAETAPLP

T5 sequence (P51452 whole entry): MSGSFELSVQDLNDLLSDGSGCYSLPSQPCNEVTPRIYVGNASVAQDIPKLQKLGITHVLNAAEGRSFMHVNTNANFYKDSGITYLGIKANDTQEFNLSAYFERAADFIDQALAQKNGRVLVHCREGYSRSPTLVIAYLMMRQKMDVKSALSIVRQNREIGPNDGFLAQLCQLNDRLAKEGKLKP
T1 sequence (P11940 whole entry): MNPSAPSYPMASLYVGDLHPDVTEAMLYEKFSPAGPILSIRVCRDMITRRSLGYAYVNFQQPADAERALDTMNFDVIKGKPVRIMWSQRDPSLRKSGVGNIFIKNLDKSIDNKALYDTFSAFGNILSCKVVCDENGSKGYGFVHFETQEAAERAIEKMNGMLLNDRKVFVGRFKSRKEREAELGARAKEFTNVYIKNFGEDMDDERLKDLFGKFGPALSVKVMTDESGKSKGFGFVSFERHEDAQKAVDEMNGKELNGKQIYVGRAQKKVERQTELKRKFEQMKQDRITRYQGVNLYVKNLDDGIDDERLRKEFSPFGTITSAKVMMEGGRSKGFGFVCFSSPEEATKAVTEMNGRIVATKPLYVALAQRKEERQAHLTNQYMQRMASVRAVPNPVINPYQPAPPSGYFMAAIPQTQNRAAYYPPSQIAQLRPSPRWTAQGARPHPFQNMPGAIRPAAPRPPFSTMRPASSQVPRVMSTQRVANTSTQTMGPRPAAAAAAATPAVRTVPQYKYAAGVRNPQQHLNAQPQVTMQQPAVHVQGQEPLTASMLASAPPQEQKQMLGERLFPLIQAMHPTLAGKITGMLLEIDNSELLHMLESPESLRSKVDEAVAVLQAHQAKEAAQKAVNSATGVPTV
T7 sequence (P41145 whole entry): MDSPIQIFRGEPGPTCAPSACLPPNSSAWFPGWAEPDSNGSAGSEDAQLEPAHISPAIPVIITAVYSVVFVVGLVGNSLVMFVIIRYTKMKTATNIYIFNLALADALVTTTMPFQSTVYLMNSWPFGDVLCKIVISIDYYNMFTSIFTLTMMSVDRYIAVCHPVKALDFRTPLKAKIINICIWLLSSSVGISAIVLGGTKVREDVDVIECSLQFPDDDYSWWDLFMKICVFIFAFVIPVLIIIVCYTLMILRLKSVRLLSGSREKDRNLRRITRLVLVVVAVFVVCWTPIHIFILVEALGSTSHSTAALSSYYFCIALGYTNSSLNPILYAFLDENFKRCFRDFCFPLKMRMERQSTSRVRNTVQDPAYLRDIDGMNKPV
Glyceraldehyde-3-phosphate dehydrogenase, sequence (P04406 whole entry): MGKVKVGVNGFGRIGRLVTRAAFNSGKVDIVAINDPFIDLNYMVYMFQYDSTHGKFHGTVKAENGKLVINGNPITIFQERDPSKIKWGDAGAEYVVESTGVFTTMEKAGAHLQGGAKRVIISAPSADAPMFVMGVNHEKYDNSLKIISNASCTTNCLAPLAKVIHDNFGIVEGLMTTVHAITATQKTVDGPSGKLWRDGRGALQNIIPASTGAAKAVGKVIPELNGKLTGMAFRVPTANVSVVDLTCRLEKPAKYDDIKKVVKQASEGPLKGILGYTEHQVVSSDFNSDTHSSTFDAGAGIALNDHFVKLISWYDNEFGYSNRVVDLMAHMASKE
Delta-type opioid receptor, sequence (P41143 whole entry): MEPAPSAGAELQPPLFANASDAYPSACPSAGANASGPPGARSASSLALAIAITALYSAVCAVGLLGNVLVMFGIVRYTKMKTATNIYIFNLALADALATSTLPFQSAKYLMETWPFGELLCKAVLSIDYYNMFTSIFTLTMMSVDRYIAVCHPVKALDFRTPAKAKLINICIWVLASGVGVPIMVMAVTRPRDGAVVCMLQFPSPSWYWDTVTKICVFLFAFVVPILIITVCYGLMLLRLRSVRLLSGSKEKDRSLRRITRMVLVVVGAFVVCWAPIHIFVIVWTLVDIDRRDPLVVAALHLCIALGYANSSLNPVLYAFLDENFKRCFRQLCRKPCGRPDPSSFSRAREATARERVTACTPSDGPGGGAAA

`CC(C)c1ccc(OC(=O)c2cccc(S(=O)(=O)N3CCN(C)CC3)c2)cc1` was tested, and the IC50 [1] was 6.93 µM (active), the IC50 [2] was 27.6 µM (active) and the IC50 [3] was 11.6 µM (active). The IC50 [4] was 15.7 µM (active) and the IC50 [5] was > 100 µM (inactive).

In the case of `O=C(O)c1ccc(-c2ccc(/C=c3\sc4nc5ccccc5n4c3=O)o2)cc1`, the IC50 [6] is reported as 8.6 µM (active), the IC50 [7] is reported as 6.21 µM (active) and the IC50 [8] is reported as 33.5 µM (active). The IC50 [9] was 6.59 µM (active), the IC50 [10] was 3.26 µM (active) and the IC50 [11] was > 100 µM (not active). For the same compound, the IC50 [12] was 5.78 µM (active).

`Cc1ccc(S(=O)(=O)N2CCc3ccc(C(=O)NCCN(Cc4ccccc4)C(C)C)cc3C2)cc1` was tested, and the IC50 [13] was > 32 µM (inactive), the IC50 [14] was > 32 µM (inactive) and the IC50 [15] was 10.2 µM (inactive). The IC50 (Mu-type opioid receptor) was 2.89 µM (active).
